Data on 13 molecules can be found in US20240279215A1 (Cytokinetics, Incorporated, priority 2022, published 2024).

pEC50: −log10 of the molar value.

Chain of human NAMPT (P43490 whole entry): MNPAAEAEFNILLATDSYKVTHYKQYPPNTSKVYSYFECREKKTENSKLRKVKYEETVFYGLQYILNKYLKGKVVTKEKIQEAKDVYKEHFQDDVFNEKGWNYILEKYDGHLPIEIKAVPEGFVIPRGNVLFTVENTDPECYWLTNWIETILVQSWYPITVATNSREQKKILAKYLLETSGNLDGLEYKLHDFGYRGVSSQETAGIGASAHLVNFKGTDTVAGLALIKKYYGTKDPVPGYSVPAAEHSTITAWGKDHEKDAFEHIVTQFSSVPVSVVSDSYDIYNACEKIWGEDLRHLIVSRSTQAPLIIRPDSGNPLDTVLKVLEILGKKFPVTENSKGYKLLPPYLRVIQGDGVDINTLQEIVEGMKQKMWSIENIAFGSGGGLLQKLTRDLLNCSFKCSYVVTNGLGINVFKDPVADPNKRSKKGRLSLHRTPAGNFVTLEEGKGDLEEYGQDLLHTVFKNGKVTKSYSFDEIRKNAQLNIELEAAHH

The experiment has as its target human NAMPT (Homo sapiens (Human), UniProt P43490). Put plainly: NMN fluorescence biochemical assay (human recombinant NAMPT enzyme assay). The procedure, abridged: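 NMN formed was detected by fluorescence (Ex/Em 355/460 nm) after acetophenone, KOH and formic acid derivatization. The cell-free reaction ran 60 min at ambient temperature with 6 nM human NAMPT, 150 μM nicotinamide, 20 μM PRPP, 2.5 mM ATP, pH 7.2 HEPES, and compound dose responses.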
The term pEC50 denotes the EC50 on a negative log10 scale, so that one unit is a factor of ten. Regarding `Cc1nocc1C(=O)N[C@@H](C)c1ccc(NC(=O)OCc2ccc(Cl)cc2)cc1` [Compound 150, (4-chlorophenyl)methyl N-{4-[(1S)-1-[(3-methyl-1,2-oxazol-4-yl)formamido]ethyl]phenyl}carbamate], the “AC1.4 Human” value is 1.24 µM and the pEC50 was 5.37.
On the same counts, the results for `O=C(Nc1ccc(C2CCS(=O)(=O)CC2)cc1)OCc1ccc(Cl)cc1` [Compound 151] are 1.25 µM and 5.23.
Consider `Cc1ncoc1C(=O)N[C@@H](C)c1ccc(NC(=O)OCc2ccc(Cl)cc2)cc1` [Compound 152, (4-chlorophenyl)methyl N-{4-[(1S)-1-[(4-methyl-1,3-oxazol-5-yl)formamido]ethyl]phenyl}carbamate], for which the “AC1.4 Human” value is 1.27 µM and the pEC50 was 4.98.
As to `O=C(Nc1ccc(Cc2ccncc2)cc1)OCc1cnco1` [Compound 153, oxazol-5-ylmethyl (4-(pyridin-4-ylmethyl)phenyl)carbamate], the “AC1.4 Human” value worked out at 1.27 µM and the pEC50 is 4.47.
Take `C[C@H](NC(=O)N1CCOCC1)c1ccc(NC(=O)OCc2ccc(Cl)cc2)cc1` [Compound 154, 4-chlorobenzyl (S)-(4-(1-(morpholine-4-carboxamido)ethyl)phenyl)carbamate]: the “AC1.4 Human” value turned out to be 1.30 µM and the pEC50 is 4.92.
As for `Cc1coc(C(=O)N(C)Cc2ccc(NC(=O)OCc3ccc(Cl)cc3)cc2)n1` [Compound 155, (4-chlorophenyl)methyl N-(4-{[N-methyl-1-(4-methyl-1,3-oxazol-2-yl)formamido]methyl}phenyl)carbamate], the “AC1.4 Human” value came out at 1.31 µM and the pEC50 was 5.24.
On the same counts, the results for `COC(=O)N1CCN(C(=O)Cc2ccc(NC(=O)OCc3ccc(Cl)cc3)cc2)CC1` [Compound 156, methyl 4-(2-(4-((((4-chlorobenzyl)oxy)carbonyl)amino)phenyl)acetyl)piperazine-1-carboxylate] are 1.31 µM and 5.02.
Consider `Cc1ncc(C(=O)NCc2ccc(NC(=O)OCc3ccc(Cl)cc3)cc2)o1` [Compound 157, (4-chlorophenyl)methyl N-(4-{[(2-methyl-1,3-oxazol-5-yl)formamido]methyl}phenyl)carbamate], for which the “AC1.4 Human” value was found to be 1.32 µM and the pEC50 was 5.04.
On to `COc1ccc(C(=O)NCc2ccc(NC(=O)OCc3ccc(Cl)cc3)cc2)cn1` [Compound 158, (4-chlorophenyl)methyl N-(4-{[(6-methoxypyridin-3-yl)formamido]methyl}phenyl)carbamate], for which the “AC1.4 Human” value was 1.32 µM and the pEC50 is 5.90.
On the same counts, the results for `C[C@H](NC(=O)c1cncc(F)c1)c1ccc(NC(=O)OCc2ccc(Cl)cc2)cc1` [Compound 159, (4-chlorophenyl)methyl N-{4-[(1S)-1-[(5-fluoropyridin-3-yl)formamido]ethyl]phenyl}carbamate] are 1.33 µM and 5.37.
On the same counts, the results for `Cc1cc(C(=O)N(C)Cc2ccc(NC(=O)OCc3ccc(Cl)cc3)cc2)on1` [Compound 160, (4-chlorophenyl)methyl N-(4-{[N-methyl-1-(3-methyl-1,2-oxazol-5-yl)formamido]methyl}phenyl)carbamate] are 1.33 µM and 5.27.
For the molecule `CO[C@H]1CCCN(C(=O)Cc2ccc(NC(=O)OCc3ccc(Cl)cc3)cc2)C1` [Compound 161, 4-chlorobenzyl (S)-(4-(2-(3-methoxypiperidin-1-yl)-2-oxoethyl)phenyl)carbamate], the “AC1.4 Human” value was found to be 1.33 µM and the pEC50 was 5.00.
Regarding `COc1ncc(C(=O)NCc2ccc(NC(=O)OCc3ccc(Cl)cc3)cc2)cn1` [Compound 162, (4-chlorophenyl)methyl N-(4-{[(2-methoxypyrimidin-5-yl)formamido]methyl}phenyl)carbamate], the “AC1.4 Human” value was found to be 1.36 µM and the pEC50 is 5.35.
